Values joined by “and” are separate entries in the source; they are usually repeats but may differ in a detail not shown here. Equal values may be shown once. Toxic doses and inconclusive results are not listed. No stated cut-off is given here; in the data, active means T/C of 150% or more; inactive means T/C below 125%.
Test system: L1210 leukemia ip in BDF1 mice, survival T/C
Test: NCI In Vivo Anticancer Drug Screen. Data for tumor model L1210 Leukemia (intraperitoneal) in B6D2F1 (BDF1) mice
Settings: endpoint: mean survival time, higher = longer survival
How it was run: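 Tumor was transplanted into mice, which were then dosed with test compound or vehicle alone. Survival was recorded for each group, and the treated figure was expressed relative to the control figure.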

[1] = dose: 100.0 mg/kg/injection, schedule: Q01DX009 (ip), vehicle: Klucel (hydroxypropylcellulose) (HPC)
[2] = dose: 100.0 mg/kg/injection, schedule: Q04DX002 (ip), vehicle: saline with Tween-80
[3] = dose: 200.0 mg/kg/injection, schedule: Q04DX002 (ip), vehicle: saline with Tween-80
[4] = dose: 400.0 mg/kg/injection, schedule: Q04DX002 (ip), vehicle: saline with Tween-80

Measured: T/C

CNC=O
inactive: dose: 32.0 mg/kg/injection, schedule: Q01DX015 (ip), vehicle: saline 94 % of control | dose: 42.87 mg/kg/injection, schedule: Q01DX Z (ip), vehicle: carboxymethylcellulose (CMC) 102 % of control | dose: 42.88 mg/kg/injection, schedule: Q01DX Z (ip), vehicle: carboxymethylcellulose (CMC) 107 % of control | dose: 44.12 mg/kg/injection, schedule: Q01DX Z (ip), vehicle: carboxymethylcellulose (CMC) 98 % of control | dose: 63.0 mg/kg/injection, schedule: Q01DX015 (ip), vehicle: saline 94 % of control | dose: 75.0 mg/kg/injection, schedule: Q01DX009 (ip), vehicle: saline 112 % of control | dose: 85.75 mg/kg/injection, schedule: Q01DX Z (ip), vehicle: carboxymethylcellulose (CMC) 103 % of control and 113 % of control | dose: 125.0 mg/kg/injection, schedule: Q01DX015 (ip), vehicle: saline 102 % of control | dose: 125.0 mg/kg/injection, schedule: Q01DX Z (ip), vehicle: saline 110 % of control | dose: 150.0 mg/kg/injection, schedule: Q01DX009 (ip), vehicle: saline 112 % of control | dose: 150.0 mg/kg/injection, schedule: Q01DX Z (ip), vehicle: saline 114 % of control | dose: 171.5 mg/kg/injection, schedule: Q01DX Z (ip), vehicle: carboxymethylcellulose (CMC) 110 % of control and 115 % of control | dose: 176.5 mg/kg/injection, schedule: Q01DX Z (ip), vehicle: carboxymethylcellulose (CMC) 111 % of control | dose: 225.0 mg/kg/injection, schedule: Q01DX001 (ip), vehicle: saline 101 % of control | dose: 225.0 mg/kg/injection, schedule: Q04DX003 (ip), vehicle: saline 97 % of control | dose: 250.0 mg/kg/injection, schedule: Q01DX015 (ip), vehicle: saline 110 % of control | dose: 300.0 mg/kg/injection, schedule: Q01DX009 (ip), vehicle: saline 121 % of control | dose: 343.0 mg/kg/injection, schedule: Q01DX Z (ip), vehicle: carboxymethylcellulose (CMC) 101 % of control and 118 % of control | dose: 353.0 mg/kg/injection, schedule: Q01DX Z (ip), vehicle: carboxymethylcellulose (CMC) 100 % of control | dose: 450.0 mg/kg/injection, schedule: Q01DX001 (ip), vehicle: saline 97 % of control | dose: 450.0 mg/kg/injection, schedule: Q04DX003 (ip), vehicle: saline 101 % of control | dose: 600.0 mg/kg/injection, schedule: Q01DX Z (ip), vehicle: saline 121 % of control | dose: 900.0 mg/kg/injection, schedule: Q01DX001 (ip), vehicle: saline 95 % of control | dose: 900.0 mg/kg/injection, schedule: Q04DX003 (ip), vehicle: saline 119 % of control | dose: 1000.0 mg/kg/injection, schedule: Q01DX015 (ip), vehicle: saline 105 % of control

Nc1ncnc2c1ncn2C1OC(COS(N)(=O)=O)C(O)C1O (configuration not stated)
inactive: dose: 0.5 mg/kg/injection, schedule: Q01DX001 (ip), vehicle: saline 113 % of control

COc1cc(NCCCNc2c3ccc(Cl)cc3nc3ccc(OC)cc23)c2ncccc2c1
inactive: [1] 100 % of control

COc1c(Cl)cc2c(c1OC)N(C)C1N3C(=O)C4(C)SSC3(CC21O)C(=O)N4C (configuration not stated)
inactive: dose: 0.12 mg/kg/injection, schedule: Q01DX009 (ip), vehicle: Klucel (hydroxypropylcellulose) (HPC) 100 % of control | dose: 0.25 mg/kg/injection, schedule: Q01DX009 (ip), vehicle: Klucel (hydroxypropylcellulose) (HPC) 101 % of control | dose: 0.5 mg/kg/injection, schedule: Q01DX009 (ip), vehicle: Klucel (hydroxypropylcellulose) (HPC) 108 % of control | dose: 1.0 mg/kg/injection, schedule: Q01DX009 (ip), vehicle: Klucel (hydroxypropylcellulose) (HPC) 111 % of control

O=[N+]([O-])CC(OCCCO)C(Cl)(Cl)Cl (configuration not stated)
inactive: dose: 6.25 mg/kg/injection, schedule: Q01DX009 (ip), vehicle: saline with Tween-80 92 % of control | dose: 12.5 mg/kg/injection, schedule: Q01DX009 (ip), vehicle: saline with Tween-80 101 % of control | dose: 25.0 mg/kg/injection, schedule: Q01DX009 (ip), vehicle: saline with Tween-80 104 % of control | dose: 50.0 mg/kg/injection, schedule: Q01DX009 (ip), vehicle: saline with Tween-80 92 % of control and 91 % of control

CSc1ccccc1N=Cc1c(N)ccc(C)c1C
inactive: dose: 100.0 mg/kg/injection, schedule: Q01DX001 (ip), vehicle: saline with Tween-80 98 % of control | dose: 200.0 mg/kg/injection, schedule: Q01DX001 (ip), vehicle: saline with Tween-80 95 % of control | dose: 400.0 mg/kg/injection, schedule: Q01DX001 (ip), vehicle: saline with Tween-80 98 % of control

CC(C)(CO)N=Cc1ccccc1O.CC(C)(CO)N=Cc1ccccc1O.[Cu].[Cu]
inactive: dose: 75.0 mg/kg/injection, schedule: Q01DX001 (ip), vehicle: other 98 % of control | dose: 150.0 mg/kg/injection, schedule: Q01DX001 (ip), vehicle: other 96 % of control | dose: 300.0 mg/kg/injection, schedule: Q01DX001 (ip), vehicle: other 98 % of control

CCCC(C)OS(=O)(=O)c1ccc(Br)cc1 (configuration not stated)
inactive: dose: 100.0 mg/kg/injection, schedule: Q01DX009 (ip), vehicle: saline 91 % of control | [2] 97 % of control | dose: 200.0 mg/kg/injection, schedule: Q01DX009 (ip), vehicle: saline 96 % of control | [3] 100 % of control | dose: 400.0 mg/kg/injection, schedule: Q01DX009 (ip), vehicle: saline 86 % of control | [4] 97 % of control

CC(C)CCCC(C)CCCl (configuration not stated)
inactive: [2] 93 % of control | [3] 86 % of control | [4] 107 % of control

CCNC(=S)Nc1ccc(OCC)cc1
inactive: [2] 89 % of control | [3] 95 % of control | [4] 100 % of control

O=C(O)c1cc2ccccc2cc1Sc1ccccc1
inactive: dose: 100.0 mg/kg/injection, schedule: Q04DX003 (ip), vehicle: saline with Tween-80 103 % of control | dose: 200.0 mg/kg/injection, schedule: Q04DX003 (ip), vehicle: saline with Tween-80 102 % of control

O=c1c2c(c(=O)c(=O)c1=O)Nc1ccccc1N2
inactive: dose: 100.0 mg/kg/injection, schedule: Q01DX001 (ip), vehicle: saline 98 % of control | dose: 200.0 mg/kg/injection, schedule: Q01DX001 (ip), vehicle: saline 104 % of control | dose: 400.0 mg/kg/injection, schedule: Q01DX001 (ip), vehicle: saline 98 % of control

CCN(CCC[N+](C)(C)C)C(=O)C(c1ccccc1)c1ccccc1
inactive: dose: 100.0 mg/kg/injection, schedule: Q04DX003 (ip), vehicle: saline 93 % of control

O=[N+]([O-])c1c(Cl)cc(Cl)c([N+](=O)[O-])c1-c1ccccc1
inactive: dose: 100.0 mg/kg/injection, schedule: Q01DX001 (ip), vehicle: carboxymethylcellulose (CMC) 96 % of control | dose: 200.0 mg/kg/injection, schedule: Q01DX001 (ip), vehicle: carboxymethylcellulose (CMC) 96 % of control | dose: 400.0 mg/kg/injection, schedule: Q01DX001 (ip), vehicle: carboxymethylcellulose (CMC) 107 % of control

CCn1/c(=N\N=O)sc2ccccc21
inactive: dose: 100.0 mg/kg/injection, schedule: Q01DX001 (ip), vehicle: Klucel (hydroxypropylcellulose) (HPC) 96 % of control

O=C1N(c2nncs2)CCN1[N+](=O)[O-]
inactive: [1] 95 % of control | dose: 100.0 mg/kg/injection, schedule: Q04DX003 (ip), vehicle: Klucel (hydroxypropylcellulose) (HPC) 95 % of control | dose: 200.0 mg/kg/injection, schedule: Q01DX009 (ip), vehicle: Klucel (hydroxypropylcellulose) (HPC) 98 % of control | dose: 200.0 mg/kg/injection, schedule: Q04DX003 (ip), vehicle: Klucel (hydroxypropylcellulose) (HPC) 98 % of control | dose: 400.0 mg/kg/injection, schedule: Q01DX009 (ip), vehicle: Klucel (hydroxypropylcellulose) (HPC) 103 % of control | dose: 400.0 mg/kg/injection, schedule: Q04DX003 (ip), vehicle: Klucel (hydroxypropylcellulose) (HPC) 102 % of control

C[CH2][Pb]([CH2]C)([CH2]C)[S]C(C)=O
inactive: dose: 1.5 mg/kg/injection, schedule: Q01DX009 (ip), vehicle: Klucel (hydroxypropylcellulose) (HPC) 89 % of control | dose: 3.0 mg/kg/injection, schedule: Q01DX009 (ip), vehicle: Klucel (hydroxypropylcellulose) (HPC) 101 % of control | dose: 12.5 mg/kg/injection, schedule: Q04DX002 (ip), vehicle: Klucel (hydroxypropylcellulose) (HPC) 102 % of control

Reference: PubChem BioAssay AID248 (DTP/NCI, 2004)
